These are literature values, as cited in patent US6063383A, “Pharmaceutical suppository composites for fever and influenza and method of producing the composites” (priority 1999, dated 2000).

“Also recorded” adds a separate entry of the source. Like-named read-outs stand apart in the source and are kept apart here.

Data set [1] has as its system colon.
For data set [2], the system named is inflammation.
Data set [3] concerns twisting reaction of small rats caused by acetic acid. Particulars: into the stomach.
Data set [4] deals with blood capillary permeability. Particulars: into the stomach.
Data set [5] relates to hypothalamus.
Data set [6] has as its system nephrosis. Particulars: intra-abdominal.
The subject of data set [7] is heart separated from frogs, wister rats, or rabbits.
The test system of data set [8] is aortic arteries.
Data set [9] concerns hypertension.
Data set [10] has as its system heart failure; left ventricles.
In data set [11] the test system is sleeping time. The following applies: sub-threshold pento-barbital sodium.
Data set [12] concerns cerebral cortical nerves.
The subject of data set [13] is post-synaptic GABA receptors.
Data set [14] deals with convulsion.
Data set [15] has as its system heat-induced pyrogenesis.
For data set [16], the system named is pain. Particulars: oral intake or injection.
The test system of data set [17] is hemorrhagic heart failure.
Data set [18] deals with blood platelets. The following applies: ADP, arachidonic acids and collagen.
In data set [19] the test system is TXA; prostate glandis (PGI).
For data set [20], the system named is TXA.
The test system of data set [21] is formation of thrombi.
For data set [22], the system named is myocardia.
The test system of data set [23] is cardiac arrhythmias.
The subject of data set [24] is essential hypertension and critical hypertension. Particulars: in vivo.
In data set [25] the test system is blood cholesterol. The following applies: in vivo.
For data set [26], the system named is liver injury caused by carbon tetrachloride.
Data set [27] deals with small rats.
The test system of data set [28] is small rats. Particulars: rat, in vivo.
The subject of data set [29] is granuloma. The following applies: for anti-granulomatous action: cotton granulomatous method; for anti-osmosis: granulationimplantation.
In data set [30] the test system is small rats. The source holds these as a separate data set.
Data set [31] deals with coughing.
Data set [32] concerns smooth muscles of the gall bladder and the dilator in the opening of the bile duct.
[33] abbreviates: infusing to the stomach of small rats.

Usually IC50 stands for the concentration that inhibits the measured activity by half. What is called pA2 is a measure of antagonist potency on a negative log scale. In the case of `COc1cc(CC2(O)C(=O)OCC2Cc2ccc(OC)c(OC)c2)ccc1O` (single isomer, unassigned) [trachelogenin], in data set [1], the IC50 was 1100 nM and the “antagonistic action on calcium” value is “noticeable antagonistic action on calcium”. In addition, the effect on contraction result in [1] (high concentration of potassium) was “inhibitory effect on the contraction”. The pA2 in data set [1] (rat, colon) is recorded as 6.60. Besides, the ratio to verapamil entry in [1] (versus verapamil) is reported as “one-sixth”.
With `CCCCCC(O)CC` (stereo not drawn) [3-octanol], the inflammation action entry in data set [2] is given as “have inflammation action”.
For `CC1CCC(C(C)C)C(O)C1` (stereo not drawn) [Methol], the “inhibitory rate on twisting reaction” value in data set [3] is 41.3%.
As to `CC(C)=C1CC[C@@H](C)CC1=O` [Pulegone], the “inhibitory rate on abdominal osmosis” value in data set [4] is reported as 39.8%.
On to `O=C1C[C@@H]2OCC=C3CN4CC[C@]56c7ccccc7N1[C@H]5[C@H]2[C@H]3C[C@H]46` [Strychnine, reference compound], for which the antagonism of pyrexia entry in [5] (rat, in vivo) was “can antagonize pyrexia”.
`COc1cc(C[C@H]2C(=O)OC[C@@H]2Cc2ccc(OC)c(OC)c2)ccc1O` [arctigenin]: in [6], the “excretion of proteins in urine” value is on record as “can inhibit the increase in the excretion of proteins in urine” and the serum biochemical index entry is given as “improve the serum biochemical index”.
As to `C=CC1=C(C)/C(=C/c2[nH]c(Cc3[nH]c(/C=C4\NC(=O)C(C)=C4C=C)c(C)c3CCC(=O)O)c(CCC(=O)O)c2C)NC1=O` [bilirubin], in data set [7], the cardiac tonic effect entry is recorded as “cardiac tonic effect”. Further, in [8], the “contracting effect on aortic arteries” value is “weaker contracting effect”.
On to `C[C@H](CCC(=O)O)[C@H]1CC[C@H]2[C@@H]3[C@H](O)C[C@@H]4C[C@H](O)CC[C@]4(C)[C@H]3C[C@H](O)[C@]12C` [calcium cholic acid], for which, in data set [9] (oral, 100 mg/kg), the “blood pressure lowering effect” value is “significant and long-lasting blood pressure lowering effect”; the “duration of hypotensive effect” value is “one”.
Consider `C[C@H](CCC(=O)O)[C@H]1CC[C@H]2[C@@H]3[C@H](O)C[C@@H]4C[C@H](O)CC[C@]4(C)[C@H]3C[C@H](O)[C@]12C` [cholic acid], for which the cardiac tonic effect result in [7] is recorded as “cardiac tonic effect”. Besides, the “contracting effect on aortic arteries” value in data set [8] is “contracting effect”.
For the compound `COc1ccc([C@@H]2Sc3ccccc3N(CCN(C)C)C(=O)[C@@H]2OC(C)=O)cc1` [diltiazem, reference compound], the “output of left ventricles” value in [10] (1 mg/kg) is “the output of the left ventricles reduces”.
With `CC(C)NCC(O)COc1cccc2ccccc12` (stereo not drawn) [propranolol, reference compound], the “output of left ventricles” value in data set [10] (1 mg/kg) is recorded as “the output of the left ventricles reduces”.
For orientation: LD50 means the dose expected to kill half of the subjects tested. Consider `NCCS(=O)(=O)O` [taurine], for which, in data set [11], the hypnotizing action entry is listed as “increase the hypnotizing action”. Further, in data set [12], the electrical activities entry was “can inhibit both the spontaneous and induced electrical activities and produce hyperpolarization”. Further, the “inhibitory effect on the spinal cord and brain stem with strychnine” value in data set [12] (strychnine) is “antagonized by strychnine”. In addition, the “affinity for post-synaptic GABA receptors” value in [13] is “no significant affinity”. In addition, the “replacement of GABA effects” value in [13] (central nervous system) is “cannot replace the inhibitory effect and modulating effect of GABA”. Besides, the effect on convulsion entry in data set [14] (pento-tetra-amine, cepharathin, carbon monoxide, aluminum oxide, 4-amino pyride, penicillin, oxygen, low calcium, sound, L-uric acid) is given as “inhibitory effect”. The “latency period of convulsion” value in data set [14] (strychnine) is recorded as “can significantly extend the latency period”. Also, the body temperature entry in [5] (injection into the hypothalamus) is “can increase the body temperature”. For the same compound, the body temperature entry in data set [5] (large dosage) is given as “can reduce the body temperature”. Also, the “effect on PGE1 and PGE2 mechanism” value in data set [15] (E1 (PGE1) and E2 (PGE2)) was “so such effect occurs”. For the same compound, the inhibition of pyrogenesis result in data set [15] (endotoxin and white blood cells, injection into the cerebral ventricles) is “can inhibit the heat-induced pyrogenesis of endotoxin and white blood cells”. Also, the pain relief entry in [16] is “does not produce noticeable pain relief”. Besides, the hypotensive effect entry in data set [9] (essential or deoxy-cortisone acetate-induced hypertension) is given as “hypotensive effect”. In addition, the “output of left ventricles” value in data set [10] (after 1 mg/kg propranolol or diltiazem) was “can improve the output of left ventricles”. In data set [10] (long-term oral), the life expectancy result was “extends the life expectancy of rabbits”. Besides, in data set [10] (long-term oral, incomplete opening and closing of aortic valves), the “prevention of heart failure” value is given as “can prevent the accelerated hemorrhagic heart failure”. Further, in data set [10] (rabbit, in vivo), the “normal rate and final diastolic pressure of left ventricles” value is “does not affect the normal rate of rabbits and the final diastolic pressure of left ventricles”; the “output and systolic pressure of the left ventricles” value is “significantly increase the output and systolic pressure of the left ventricles”. Moreover, the heart-failure mortality rate result in data set [10] (treatment group) is given as “significantly reduces with a lower heart pulse”. Also, the treatment effect entry in data set [17] (6 g daily, four weeks) is recorded as “noticeable treatment effect”. Also, in data set [17] (catecholamines and digitalis), the “action and metabolism of cardiac tonic” value was “does not affect the action and metabolism of cardiac tonic”. Also, the “agglomeration of blood platelets” value in [18] is reported as “dosage-dependence relationship; also recorded: inhibitory action on the agglomeration of blood platelets”. In data set [19], the “formation of TXA by arachidonic acids” value is reported as “no effect on the formation of TXA by arachidonic acids” and the “formation of TXA by collagen” value is given as “can inhibit the formation of TXA by collagen”. The “formation of PGI” value in data set [20] was “no noticeable effect”. Moreover, the formation of thrombi result in data set [21] is on record as “noticeable inhibition on the formation of thrombi”. In data set [22], the “effect on cell membrane” value is “stabilizing effect on the cell membrane”; the formation of glutathione entry is “increase the formation of glutathione”; the “myocardial blood deficiency and damage” value was “can significantly inhibit myocardial blood deficiency and damage”; the “myocardial injury by hyperpolarization of calcium” value is listed as “antagonize the myocardial injury”. The oxygen free radicals entry in data set [22] is given as “reduce the formation of oxygen free radicals; also recorded: increases the excretion of oxygen free radicals”. Besides, in data set [23], the “effect on Ca^2+ in the myocardia” value is recorded as “biphasic moderation” and the “prevention of cardiac arrhythmias” value is recorded as “can prevent cardiac arrhythmias”. Further, the anti-arrhythmic effect result in [23] (used together with quinidina, small rats) was “better anti-arrhythmic effect”. For the same compound, the “effects in treating hypertension” value in data set [24] is “satisfactory”. Also, in [25], the atherosclerosis entry is “prevent atherosclerosis”, the blood cholesterol entry is “reduce blood cholesterol” and the high-density lipoproteins result is “increase high-density lipoproteins”. Moreover, in [26] (in vivo), the “protection for liver injury” value is “protection for the liver injury” and the “rise of ALT” value was “inhibits the rise of ALT”. Further, in data set [26] (pathological sectioning), the “repairing of liver cells” value was “can promote the repairing of liver cells and the prevention of lipohepatitis”. Further, the LD50 in data set [27] (intravenous) was 330 mg/kg. Moreover, the pathological changes entry in [28] was “no pathological changes are found”.
Consider `C=C1CCC2CC1C2(C)C` (stereo not drawn) [β-pipene], for which the inflammation action result in data set [2] is recorded as “have inflammation action”.
bupleurum saponin-a: in [29], the anti-granulomatous action entry is listed as “anti-granulomatous action” and the anti-osmosis entry is reported as “anti-osmosis”. In addition, in [30] (mounting experiments, conditional aversion), the inhibition on over-activity entry is reported as “noticeable inhibition on the over-activity”. Further, the tranquilizing effect entry in data set [30] (rat, in vivo) is listed as “significant tranquilizing effect”. Further, in [31] (intra-abdominal, 100~200 mg/kg, wister rats, 200 mg/kg), the “coughing-relieving action, dose relation” value is “most noticeable coughing-relieving action; also recorded: related to its dosage”. In addition, in data set [31] (rat, in vivo), the “action of relieving coughing” value is “stronger action of relieving coughing”.
Take bupleurum saponin-d: in [29], the anti-granulomatous action entry is given as “anti-granulomatous action” and the anti-osmosis entry was “anti-osmosis”.
Regarding chloretic acid, the LD50 in [27] (setting [33]) was 1520 mg/kg.
In the case of deoxy-chloretic acid, the “effect on bile duct / excretion of bile” value in data set [32] was “can relax the dilators of the bile duct”. Moreover, the LD50 in data set [27] (setting [33]) was 1060 mg/kg; in data set [27] (intravenous), 150 mg/kg.
